According to publication doi:10.1101/2020.07.29.226878v1 (bioRxiv, 2020):

Key:
[1] = test system: sheep blowflies (Lucilia cuprina); experiment: In vivo insecticidal assay, intrathoracic injection into sheep blowflies
[2] = test system: Acheta domesticus; details: tested in Acheta domesticus; cited from earlier work

| Substance | LD50 in blow fly assays (abstract) [1] [nM] | LD50 at 24 h [2] [nmol/g] |
| --- | --- | --- |
| Δ-pseudomyrmecitoxin-Pp1a [Δ-PSDTX-Pp1a] | 3 | – |
| ponericin G1 | – | 25.7 |
